The values below come from ChEMBL document CHEMBL1127655, “The stabilization of DNA topoisomerase II cleavable complex by mitonafide analogs” (Bioorg Med Chem Lett, 1994).

Holding throughout (format): nucleic-acid assay
Holding throughout (settings): Bos taurus

Experiment [1] concerns Calf thymus DNA. Description: Calf thymus DNA binding affinity compared to ethidium bromide.
For experiment [2], the system named is Nucleic Acid. Description: DNA binding affinity by a decrease in fluorescence of an ethidium bromide calf thymus DNA solution; (33%).
Experiment [3] has as its system Nucleic Acid. Description: DNA binding affinity by a decrease in fluorescence of an ethidium bromide calf thymus DNA solution; (10%).
Experiment [4] concerns Nucleic Acid. Kind of experiment: DNA binding affinity by a decrease in fluorescence of an ethidium bromide calf thymus DNA solution; (34%).
Experiment [5] relates to Nucleic Acid. Description: DNA binding affinity by a decrease in fluorescence of an ethidium bromide calf thymus DNA solution; (12%).
Experiment [6] has as its system Nucleic Acid. Kind of experiment: DNA binding affinity by a decrease in fluorescence of an ethidium bromide calf thymus DNA solution (0%).
Experiment [7] relates to Nucleic Acid. Description: DNA binding affinity by a decrease in fluorescence of an ethidium bromide calf thymus DNA solution; (41%).
Experiment [8] deals with Nucleic Acid. Description: DNA binding affinity by a decrease in fluorescence of an ethidium bromide calf thymus DNA solution; (25%).
Experiment [9] relates to Nucleic Acid. Description: DNA binding affinity by a decrease in fluorescence of an ethidium bromide calf thymus DNA solution; (36%).
Experiment [10] relates to Nucleic Acid. Description: DNA binding affinity by a decrease in fluorescence of an ethidium bromide calf thymus DNA solution; (39%).

Structures are written as SMILES.

In experiment [1], `CN(C)CCN1C(=O)c2cccc3cccc(c23)C1=O` came in with a C50 of 100 µM.

In the case of `O=C1c2cccc3c([N+](=O)[O-])ccc(c23)C(=O)N1CCN1CCCC1`, the C50 in [1] came out at 11 µM. As for `CNCCN1C(=O)c2cccc3cc([N+](=O)[O-])cc(c23)C1=O`, in [1], the C50 is 14 µM.

For the compound `CN(C)CCN1C(=O)c2cccc3c([N+](=O)[O-])ccc(c23)C1=O`, the C50 in experiment [2] was > 100 µM. For the compound `O=C1c2cccc3cc([N+](=O)[O-])cc(c23)C(=O)N1CCc1ccccn1`, the C50 in experiment [3] is > 100 µM. With `O=C1c2cccc3c([N+](=O)[O-])ccc(c23)C(=O)N1CCO`, in experiment [4], the C50 was > 100 µM.

Regarding `CCN(CC)CCN1C(=O)c2cccc3cccc(c23)C1=O`, in [1], the C50 stood at 100 µM. Compound `CCN(CC)CCN1C(=O)c2cccc3c([N+](=O)[O-])ccc(c23)C1=O` came in with a C50 in experiment [1] of 28 µM. The same measure, in the same setting: the result for `CCN(CC)CCN1C(=O)c2cccc3cc([N+](=O)[O-])cc(c23)C1=O` reads 35 µM. As to `O=C1c2cccc3cccc(c23)C(=O)N1CCO`, the C50 in experiment [5] is > 100 µM. As for `O=C1c2cccc3c([N+](=O)[O-])ccc(c23)C(=O)N1CCc1ccccn1`, the C50 in experiment [6] was > 100 µM. For `CNCCN1C(=O)c2cccc3cccc(c23)C1=O`, the C50 in [7] is > 100 µM. Take `CN(C)CCCN1C(=O)c2cccc3cc([N+](=O)[O-])cc(c23)C1=O`: the C50 in experiment [1] came to 16 µM.

With `CN(C)CCN1C(=O)c2cccc3cc([N+](=O)[O-])cc(c23)C1=O`, the C50 in experiment [1] was determined as 11 µM.

In turn, `NCCN1C(=O)c2cccc3cccc(c23)C1=O` displayed a C50 in experiment [1] of 50 µM. Still for that read-out and setting: the result for `O=C1c2cccc3cc([N+](=O)[O-])cc(c23)C(=O)N1CCN1CCCC1` reads 10 µM. Regarding `O=C1c2cccc3cc([N+](=O)[O-])cc(c23)C(=O)N1CCO`, the C50 in experiment [8] is > 100 µM. Regarding `CN(C)CCCN1C(=O)c2cccc3c([N+](=O)[O-])ccc(c23)C1=O`, the C50 in [9] was > 100 µM. As for `CNCCN1C(=O)c2cccc3c([N+](=O)[O-])ccc(c23)C1=O`, the C50 in [1] was 19 µM. For `O=C1c2cccc3cc([N+](=O)[O-])cc(c23)C(=O)N1CCN1CCNCC1`, the C50 in experiment [10] was > 100 µM. The compound `NCCN1C(=O)c2cccc3c([N+](=O)[O-])ccc(c23)C1=O` gave a C50 in experiment [1] of 17 µM.
